Measurements from ChEMBL document CHEMBL1152457, “Antimicrobial drug resistance of Salmonella enterica serovar typhi in asia and molecular mechanism of reduced susceptibility to the fluoroquinolones” (2007).
Converted amounts (≈) assume the structure as drawn.

Key:
Assay type in all cases: functional, Salmonella enterica subsp. enterica serovar Typhi
[1] = test system: Salmonella enterica subsp. enterica; assay: Antimicrobial activity against Salmonella enterica Serovar Typhi isolate D43 harboring DNA gyrase A S83Y mutation by disk diffusion method in presence of plasmid mediated quinolone-resistant gene qnrA and qnrS
[2] = test system: Salmonella enterica subsp. enterica; assay: Antimicrobial activity against multidrug-resistant Salmonella enterica Serovar Typhi isolate A102 harboring DNA gyrase A S83Y mutation by disk diffusion method in presence of plasmid mediated quinolone-resistant gene qnrA and qnrS
[3] = test system: Salmonella enterica subsp. enterica; assay: Antimicrobial activity against Salmonella enterica Serovar Typhi isolate C152 harboring DNA gyrase A S83Y mutation by disk diffusion method in presence of plasmid mediated quinolone-resistant gene qnrA and qnrS
[4] = test system: Salmonella enterica subsp. enterica; assay: Antimicrobial activity against multidrug-resistant Salmonella enterica Serovar Typhi isolate CT29 harboring DNA gyrase A S83F mutation by disk diffusion method in presence of plasmid mediated quinolone-resistant gene qnrA and qnrS
[5] = test system: Salmonella enterica subsp. enterica; assay: Antimicrobial activity against multidrug-resistant Salmonella enterica Serovar Typhi isolate CT61 harboring DNA gyrase A S83F mutation by disk diffusion method in presence of plasmid mediated quinolone-resistant gene qnrA and qnrS
[6] = test system: Salmonella enterica subsp. enterica; assay: Antimicrobial activity against multidrug-resistant Salmonella enterica Serovar Typhi isolate nar 102 harboring DNA gyrase A S83F mutation by disk diffusion method in presence of plasmid mediated quinolone-resistant gene qnrA and qnrS
[7] = test system: Salmonella enterica subsp. enterica; assay: Antimicrobial activity against multidrug-resistant Salmonella enterica Serovar Typhi isolate nar 104 harboring DNA gyrase A S83F mutation by disk diffusion method in presence of plasmid mediated quinolone-resistant gene qnrA and qnrS
[8] = test system: Salmonella enterica subsp. enterica; assay: Antimicrobial activity against Salmonella enterica Serovar Typhi isolate nar 108 harboring DNA gyrase A S83F mutation by disk diffusion method in presence of plasmid mediated quinolone-resistant gene qnrA and qnrS
[9] = test system: Salmonella enterica subsp. enterica; assay: Antimicrobial activity against Salmonella enterica Serovar Typhi isolate ipt 2 harboring DNA gyrase A D87G mutation by disk diffusion method in presence of plasmid mediated quinolone-resistant gene qnrA and qnrS
[10] = test system: Salmonella enterica subsp. enterica; assay: Antimicrobial activity against multidrug-resistant Salmonella enterica Serovar Typhi isolate nar 45 harboring DNA gyrase A S83F mutation by disk diffusion method
[11] = test system: Salmonella enterica subsp. enterica; assay: Antimicrobial activity against multidrug-resistant Salmonella enterica Serovar Typhi isolate nar 50 harboring DNA gyrase A S83F mutation by disk diffusion method
[12] = test system: Salmonella enterica subsp. enterica; assay: Antimicrobial activity against multidrug-resistant Salmonella enterica Serovar Typhi isolate nar 51 harboring DNA gyrase A S83F mutation by disk diffusion method
[13] = test system: Salmonella enterica subsp. enterica; assay: Antimicrobial activity against multidrug-resistant Salmonella enterica Serovar Typhi isolate ipt 32 harboring DNA gyrase A S83F mutation by disk diffusion method
[14] = test system: Salmonella enterica subsp. enterica; assay: Antimicrobial activity against multidrug-resistant Salmonella enterica Serovar Typhi isolate ipt 33 harboring DNA gyrase A S83F mutation by disk diffusion method
[15] = test system: Salmonella enterica subsp. enterica; assay: Antimicrobial activity against multidrug-resistant Salmonella enterica Serovar Typhi isolate CT118 harboring DNA gyrase A S83F mutation by disk diffusion method in presence of plasmid mediated quinolone-resistant gene qnrA and qnrS
[16] = test system: Salmonella enterica subsp. enterica; assay: Antimicrobial activity against Salmonella enterica Serovar Typhi isolate CT142 harboring DNA gyrase A S83F mutation by disk diffusion method in presence of plasmid mediated quinolone-resistant gene qnrA and qnrS
[17] = test system: Salmonella enterica subsp. enterica; assay: Antimicrobial activity against Salmonella enterica Serovar Typhi isolate CT144 harboring DNA gyrase A D87G mutation by disk diffusion method in presence of plasmid mediated quinolone-resistant gene qnrA and qnrS
[18] = test system: Salmonella enterica subsp. enterica; assay: Antimicrobial activity against multidrug-resistant Salmonella enterica Serovar Typhi isolate DT2 harboring DNA gyrase A S83F mutation by disk diffusion method in presence of plasmid mediated quinolone-resistant gene qnrA and qnrS
[19] = test system: Salmonella enterica subsp. enterica; assay: Antimicrobial activity against multidrug-resistant Salmonella enterica Serovar Typhi isolate DT3 harboring DNA gyrase A S83F mutation by disk diffusion method in presence of plasmid mediated quinolone-resistant gene qnrA and qnrS
[20] = test system: Salmonella enterica subsp. enterica; assay: Antimicrobial activity against multidrug-resistant Salmonella enterica Serovar Typhi isolate DT9 harboring DNA gyrase A S83F mutation by disk diffusion method
[21] = test system: Salmonella enterica subsp. enterica; assay: Antimicrobial activity against multidrug-resistant Salmonella enterica Serovar Typhi isolate DT18 harboring DNA gyrase A S83F and D87G mutation by disk diffusion method
[22] = test system: Salmonella enterica subsp. enterica; assay: Antimicrobial activity against multidrug-resistant Salmonella enterica Serovar Typhi isolate DT40 harboring DNA gyrase A S83F mutation by disk diffusion method
[23] = test system: Salmonella enterica subsp. enterica; assay: Antimicrobial activity against multidrug-resistant Salmonella enterica Serovar Typhi isolate DT48 harboring DNA gyrase A S83F mutation by disk diffusion method
[24] = test system: Salmonella enterica subsp. enterica; assay: Antimicrobial activity against multidrug-resistant Salmonella enterica Serovar Typhi isolate DT49 harboring DNA gyrase A S83F mutation by disk diffusion method
[25] = test system: Salmonella enterica subsp. enterica; assay: Antimicrobial activity against multidrug-resistant Salmonella enterica Serovar Typhi isolate DT54 harboring DNA gyrase A S83F mutation by disk diffusion method
[26] = test system: Salmonella enterica subsp. enterica; assay: Antimicrobial activity against multidrug-resistant Salmonella enterica Serovar Typhi isolate DT60 harboring DNA gyrase A S83F mutation by disk diffusion method
[27] = test system: Salmonella enterica subsp. enterica; assay: Antimicrobial activity against multidrug-resistant Salmonella enterica Serovar Typhi isolate AG5 harboring DNA gyrase A S83F mutation by disk diffusion method
[28] = test system: Salmonella enterica subsp. enterica; assay: Antimicrobial activity against multidrug-resistant Salmonella enterica Serovar Typhi isolate AG6 harboring DNA gyrase A S83F mutation by disk diffusion method
[29] = test system: Salmonella enterica subsp. enterica; assay: Antimicrobial activity against multidrug-resistant Salmonella enterica Serovar Typhi isolate AG7 harboring DNA gyrase A S83F mutation by disk diffusion method
[30] = test system: Salmonella enterica subsp. enterica; assay: Antimicrobial activity against multidrug-resistant Salmonella enterica Serovar Typhi isolate AG8 harboring DNA gyrase A S83F mutation by disk diffusion method
[31] = test system: Salmonella enterica subsp. enterica; assay: Antimicrobial activity against multidrug-resistant Salmonella enterica Serovar Typhi isolate AG15 harboring DNA gyrase A S83F mutation by disk diffusion method
[32] = test system: Salmonella enterica subsp. enterica; assay: Antimicrobial activity against multidrug-resistant Salmonella enterica Serovar Typhi isolate AG16 harboring DNA gyrase A S83F mutation by disk diffusion method
[33] = test system: Salmonella enterica subsp. enterica; assay: Antimicrobial activity against multidrug-resistant Salmonella enterica Serovar Typhi isolate AG17 harboring DNA gyrase A S83F mutation by disk diffusion method
[34] = test system: Salmonella enterica subsp. enterica; assay: Antimicrobial activity against multidrug-resistant Salmonella enterica Serovar Typhi isolate AG152 harboring DNA gyrase A S83F and D87G mutation by disk diffusion method in presence of plasmid mediated quinolone-resistant gene qnrA and qnrS
[35] = test system: Salmonella enterica subsp. enterica; assay: Antimicrobial activity against multidrug-resistant Salmonella enterica Serovar Typhi isolate AG168 harboring DNA gyrase A S83F mutation by disk diffusion method
[36] = test system: Salmonella enterica subsp. enterica; assay: Antimicrobial activity against Salmonella enterica Serovar Typhi isolate AG169 harboring DNA gyrase A S83F mutation by disk diffusion method
[37] = test system: Salmonella enterica subsp. enterica; assay: Antimicrobial activity against multidrug-resistant Salmonella enterica Serovar Typhi isolate AG176 harboring DNA gyrase A S83F mutation by disk diffusion method
[38] = test system: Salmonella enterica subsp. enterica; assay: Antimicrobial activity against Salmonella enterica Serovar Typhi isolate AG258 harboring DNA gyrase A S83F mutation by disk diffusion method in presence of plasmid mediated quinolone-resistant gene qnrA and qnrS
[39] = test system: Salmonella enterica subsp. enterica; assay: Antimicrobial activity against multidrug-resistant Salmonella enterica Serovar Typhi isolate HTD 798 harboring DNA gyrase A S83F mutation by disk diffusion method
[40] = test system: Salmonella enterica subsp. enterica; assay: Antimicrobial activity against multidrug-resistant Salmonella enterica Serovar Typhi isolate BL 3769 harboring DNA gyrase A S83F mutation by disk diffusion method in presence of plasmid mediated quinolone-resistant gene qnrA and qnrS

| Structure (SMILES) | MIC [1] [µg/mL] | MIC [2] [µg/mL] | MIC [3] [µg/mL] | MIC [4] [µg/mL] | MIC [5] [µg/mL] | MIC [6] [µg/mL] | MIC [7] [µg/mL] | MIC [8] [µg/mL] | MIC [9] [µg/mL] | MIC [10] [µg/mL] | MIC [11] [µg/mL] | MIC [12] [µg/mL] | MIC [13] [µg/mL] | MIC [14] [µg/mL] | MIC [15] [µg/mL] | MIC [16] [µg/mL] | MIC [17] [µg/mL] | MIC [18] [µg/mL] | MIC [19] [µg/mL] | MIC [20] [µg/mL] | further results |
| --- | --- | --- | --- | --- | --- | --- | --- | --- | --- | --- | --- | --- | --- | --- | --- | --- | --- | --- | --- | --- | --- |
| CCn1cc(C(=O)O)c(=O)c2ccc(C)nc21 [NALIDIXIC ACID] | > 256 | > 256 | > 256 | 256 | 256 | 128 | 256 | 256 | 256 | 256 (≈ 1100 µM) | 256 (≈ 1100 µM) | 256 (≈ 1100 µM) | 256 (≈ 1100 µM) | 256 (≈ 1100 µM) | > 256 | > 256 | > 256 | > 256 | > 256 | > 256 | MIC [21]: > 256 µg/mL; MIC [22]: > 256 µg/mL; MIC [23]: > 256 µg/mL; MIC [24]: > 256 µg/mL; MIC [25]: > 256 µg/mL; MIC [26]: > 256 µg/mL; MIC [27]: > 256 µg/mL; MIC [28]: > 256 µg/mL; MIC [29]: > 256 µg/mL; MIC [30]: > 256 µg/mL; MIC [31]: > 256 µg/mL; MIC [32]: > 256 µg/mL; MIC [33]: > 256 µg/mL; MIC [34]: > 256 µg/mL; MIC [35]: > 256 µg/mL; MIC [36]: > 256 µg/mL; MIC [37]: > 256 µg/mL; MIC [38]: > 256 µg/mL; MIC [39]: > 256 µg/mL; MIC [40]: > 256 µg/mL |
| CC1COc2c(N3CCN(C)CC3)c(F)cc3c(=O)c(C(=O)O)cn1c23 (stereo not given) [OFLOXACIN] | 0.5 | 0.5 | 0.5 | 1 | 1 | 1 | 1 | 1 | 2 | 0.5 (≈ 1.38 µM) | 1 (≈ 2.77 µM) | 1 (≈ 2.77 µM) | 1 (≈ 2.77 µM) | 0.5 (≈ 1.38 µM) | 1 | 1 | 1 | 2 | 2 | 2 (≈ 5.53 µM) | MIC [21]: 2 µg/mL (≈ 5.53 µM); MIC [22]: 0.5 µg/mL (≈ 1.38 µM); MIC [23]: 1 µg/mL (≈ 2.77 µM); MIC [24]: 1 µg/mL (≈ 2.77 µM); MIC [25]: 1 µg/mL (≈ 2.77 µM); MIC [26]: 1 µg/mL (≈ 2.77 µM); MIC [27]: 1 µg/mL (≈ 2.77 µM); MIC [28]: 1 µg/mL (≈ 2.77 µM); MIC [29]: 1.5 µg/mL (≈ 4.15 µM); MIC [30]: 1.5 µg/mL (≈ 4.15 µM); MIC [31]: 1.5 µg/mL (≈ 4.15 µM); MIC [32]: 1.5 µg/mL (≈ 4.15 µM); MIC [33]: 1.5 µg/mL (≈ 4.15 µM); MIC [34]: 3 µg/mL; MIC [35]: 1 µg/mL (≈ 2.77 µM); MIC [36]: 1 µg/mL (≈ 2.77 µM); MIC [37]: 0.75 µg/mL (≈ 2.08 µM); MIC [38]: 1.5 µg/mL; MIC [39]: 1 µg/mL (≈ 2.77 µM); MIC [40]: 0.5 µg/mL |
